Experimental data reported in patent US20090264528A1, “SERINE PALMITOYLCOA TRANSFERASE (SPT) INHIBITION BY MYRIOCIN OR GENETIC DEFICIENCY DECREASES CHOLESTEROL ABSORPTION” (The Research Foundation of State University of New York, priority 2008, published 2009).

Experiments:
[1] = tested on: primary enterocyte; assay: Cholesterol and oleic acid uptake by primary enterocytes; assay type: cell-based, mouse
Procedure: FIGS. 6A-D depict several graphs that illustrate that SPT deficient enterocytes absorb less cholesterol than controls. Enterocytes were isolated from mice (n=4, 12-14 weeks old) and resuspended in 4 ml of DMEM containing 0.05 microCi/ml of either [^14C]cholesterol (FIGS. 6A and 6C) or [^3H]oleic acid (FIGS. 6B and 6D). Enterocytes (100 microl) were collected at 5, 10, and 20 minutes, washed twice with DMEM, and cellular radioactivity was determined. The amounts of lipids were normalized to protein and plotted against time. FIGS. 6A and 6B, WT vs WT/myriocin; FIGS. 6C and 6D, WT vs Sptlc1^+/−, Values are mean±SD. *P<0.01.
Cholesterol uptake by primary enterocyte: The enterocyte cholesterol uptake study was carried out as disclosed in: Iqbal J, Hussain M M. Evidence for multiple complementary pathways for efficient cholesterol absorption in mice. J Lipid Res. 2005; 46:1491-1501, which is incorporated herein by reference in its entirety.
For further confirmation of the above in vivo observations, enterocytes were isolated from myriocin-treated or Sptlc1^+/− mice, as well as controls, incubated with radiolabeled cholesterol for varying times, and the cellular radioactivity was determined. […] Experiments were performed to study the uptake of [^3H]oleic acid.

[2] = biological target: T1, Serine palmitoylCoA transferase (SPT) (Mus musculus, UniProt O35704+P97363); assay: Tissue SPT activity assay, small intestine homogenate of treated mice; assay type: in vivo; details: chow diet plus myriocin for 3 weeks, vs chow controls
T1 construct: from tissue; host or cells: small intestine homogenate of C57BL/6J WT and apoE KO mice fed chow with or without myriocin
T1 sequence (O35704 1-473): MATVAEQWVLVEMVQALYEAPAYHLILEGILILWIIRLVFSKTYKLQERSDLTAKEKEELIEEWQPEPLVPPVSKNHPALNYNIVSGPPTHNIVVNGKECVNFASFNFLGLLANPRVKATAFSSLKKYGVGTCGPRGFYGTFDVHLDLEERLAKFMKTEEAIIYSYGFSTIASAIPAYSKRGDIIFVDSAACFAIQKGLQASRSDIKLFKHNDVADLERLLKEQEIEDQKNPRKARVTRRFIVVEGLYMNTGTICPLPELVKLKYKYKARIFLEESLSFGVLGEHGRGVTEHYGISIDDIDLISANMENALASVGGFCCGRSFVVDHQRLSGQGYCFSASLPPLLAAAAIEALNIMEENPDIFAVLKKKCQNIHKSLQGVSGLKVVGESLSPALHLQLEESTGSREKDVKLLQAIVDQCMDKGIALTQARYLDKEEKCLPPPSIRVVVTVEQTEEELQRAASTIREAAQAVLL
T1 sequence (P97363 1-560): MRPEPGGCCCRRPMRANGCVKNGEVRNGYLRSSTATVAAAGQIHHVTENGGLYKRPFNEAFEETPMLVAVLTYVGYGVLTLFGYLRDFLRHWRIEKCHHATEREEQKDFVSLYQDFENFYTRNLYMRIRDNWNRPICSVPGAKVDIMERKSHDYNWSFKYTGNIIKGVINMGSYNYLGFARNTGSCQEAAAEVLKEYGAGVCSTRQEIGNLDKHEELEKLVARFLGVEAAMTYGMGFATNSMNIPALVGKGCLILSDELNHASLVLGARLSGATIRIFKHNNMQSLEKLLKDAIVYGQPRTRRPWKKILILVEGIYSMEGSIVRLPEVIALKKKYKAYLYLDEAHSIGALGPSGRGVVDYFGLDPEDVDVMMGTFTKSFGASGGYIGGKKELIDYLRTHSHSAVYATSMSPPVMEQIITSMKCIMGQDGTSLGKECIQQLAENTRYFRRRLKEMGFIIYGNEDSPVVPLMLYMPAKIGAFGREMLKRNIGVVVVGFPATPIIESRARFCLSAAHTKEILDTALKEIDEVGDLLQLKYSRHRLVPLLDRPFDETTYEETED
T1 sequence (Q8R207 1-71 partner): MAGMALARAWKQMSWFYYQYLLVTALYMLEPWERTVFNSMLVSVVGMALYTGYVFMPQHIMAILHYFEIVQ
Procedure: FIGS. 1A-1C depict three graphical representations of SPT deficiency decreased SPT activity in mouse small intestine. SPT activity of small intestine homogenate was measured with […] and palmitoyl-coenzyme A as substrates. TLC was performed to separate the product, 3-keto-dihydrosphingosine (KDS, Inset). KDS band was scanned. In FIG. 1A, wildtype (WT) mice fed chow diet or chow diet plus myriocin. In FIG. 1B, apoE KO (knockout)
Mice and diet: Male C57BL/6J and apoE KO (Apolipoprotien E knockout) mice with a C57BL/6J background were obtained from the Jackson Laboratory (Bar Harbor, Me.). Sptlc1 heterozygous KO mice with a C57BL/6 background were created and bred in the inventors' laboratory. Myriocin was mixed with a chow diet. […] The myriocin dose was chosen from a previous dose-dependent experiment with apoE-KO mice. Controls consisted of WT or apoE KO mice fed a chow diet (n=6). Sptlc1 heterozygous KO (Sptlc1^+/−)(n=6) and WT mice were also fed a chow diet.
Tissue SPT activity assay: Mouse small intestine (0.2 g) was homogenized in 0.5 ml of 50 mM Tris-HCl, pH 7.4, 5 mM EDTA, and 250 mM sucrose. SPT activity in the homogenates was measured with [^14C]-serine and palmitoyl-coenzyme A for substrates, as previously described (22), which is incorporated herein by reference in its entirety. […]

CCCCCCC(=O)CCCCCC/C=C/C[C@@H](O)[C@H](O)[C@@](N)(CO)C(=O)O [Myriocin, myriocin]
uptake of [3H]oleic acid vs controls ([1]; enterocytes isolated from myriocin-treated mice): No significant changes
radiolabeled cholesterol uptake (cellular radioactivity) vs controls ([1]; enterocytes isolated from myriocin-treated mice, 5, 10, 20 minutes): significantly less radioactivity
less SPT activity than controls in the small intestine ([2]; WT mice): 60%
less SPT activity than controls in the small intestine ([2]; apoE KO mice): 65%
